The values below come from US10017492B2 (KANGPU BIOPHARMACEUTICALS, LTD., priority 2014, dated 2018).

pIC50: −log10 of the molar value. Like-named read-outs stand apart in the source and are kept apart here.

The subject of test [1] is MM.1S cells (myeloma cells). In words: Cell proliferation assay (MTS), MM.1S myeloma cells. In kind it is cell-based. The settings on record: Homo sapiens, MM1.S, 72 hours, read-out: IC50 values of MMIS Inhibition. The method in brief: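 MM.1S myeloma cells were seeded at 1.8×10^3 per well in RPMI and rested 24 hours before 72 hours of compound exposure at 37° C., 5% CO2, with final DMSO at 0.5%. Viability was read by MTS at OD490 nm, using OD650 nm as reference. IC50 came from variable-slope curves, with the 0.5% DMSO control set as 0% inhibition.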

The subject of the next test is TNF-α. The test is described as follows: TNF-α activity inhibiting assay (LPS-stimulated peripheral blood, ELISA). It is filed as cell-based, human. The settings on record: Homo sapiens, compound 100 nM, diluted peripheral blood of healthy volunteers, LPS 10 ng/mL, 6 hours, read-out: Inhibitory Rate on TNF-α (%). Summed up: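 Human whole blood (EDTA), diluted 5-fold in RPMI 1640, pre-incubated 60 min at 37 °C with compound at 100 nM final (0.2% DMSO), then stimulated 6 h with 10 ng/mL LPS. Supernatant TNF-α measured by ELISA (OD450); inhibition relative to 0.2% DMSO control.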

The subject of test [2] is Rec-1 cells (Mantle cell lymphoma cells). The test is described as follows: CTG cell proliferation assay, Rec-1 cells. It is filed as cell-based. The note with it: Homo sapiens, Rec1, 72-120 hours, CellTiter-Glo, read-out: IC50 Value of Rec-1 Inhibition. The method, then: (§1) CTG Cell Proliferation Assay
(§2) Rec-1 cells (Mantle cell lymphoma cells) (ATCC, catalog number CRL-3004), Namalwa.CSN/70 cells (Burkitt lymphoma cells) (DSMZ, catalog number ACC-70), and WSU-DLCL-2 cells (diffuse large B cell lymphoma cells) (DSMZ, catalog number ACC-575) were seeded at (5-15)×10^3 per well to a 96-well plate with transparent bottom and white wall (Corning, catalog number CLS3903) containing specific medium. The plate was placed in an incubator and incubated for 24 hours at 37° C. under 5% CO2. Compounds were prepared as 150 mM stock solutions with DMSO (Sigma, catalog number 276855), and were diluted with the medium to the desired concentration (the final concentration of DMSO was 0.2%) and then were added to each well, incubated in an incubator for 72-120 hours at 37° C. under 5% CO2. Then, 100 μl CellTiter-Glo® cell activity assay reagent (Promega, catalog number G7570) was added to each well. Mixing proceeded for 10 minutes on a shaker to induce cytolysis. The 96-well plate was placed at room temperature for 10 minutes to make the luminous signal stable. A white base film was pasted at the bottom of the culture plate. EnSpire was used to test the plate.
For orientation: ATP-based viability assays read luminescence as a measure of living cells.

In test [3] the test system is Namalwa.CSN/70 cells (Burkitt lymphoma cells). The test is described as follows: CTG cell proliferation assay, Namalwa.CSN/70 cells. In kind it is cell-based. The settings on record: 72-120 hours, CellTiter-Glo, read-out: IC50 Value of Namalwa.CSN/70 Inhibition. The method, then:
as §1, §2

The subject of test [4] is WSU-DLCL-2 cells (diffuse large B cell lymphoma cells). In words: CTG cell proliferation assay, WSU-DLCL-2 cells. In kind it is cell-based. The note with it: 72-120 hours, CellTiter-Glo, read-out: IC50 Value of WSU-DLCL2 Inhibition. The method, then:
as §1, §2

Setting [5] is: Homo sapiens, WSUDLCL2, WSU-DLCL-2 cells.

Take `[2H]C1(N2Cc3c(OCc4ccc(CN5CC(C)OC(C)C5)cc4F)cccc3C2=O)CCC(=O)NC1=O` (stereo not drawn) [Compound A427, 3-deuterium-3-(4-((4-((2,6-dimethylmorpholino)methyl)-2-fluorobenzyl)oxy)-1-oxoisoindolin-2-yl)piperidine-2,6-dione]: the pIC50 is more than 6.52 in test [1], more than 7.00 in test [2], less than 3.52 in test [3] and 3.52 to 6.40 in test [4] (WSU-DLCL-2 cells). For the same molecule, the inhibition at 0.1 µM in the test with TNF-α is not below 50%.

Consider `Nc1cc(F)cc2c1CN(C1CCC(=O)NC1=O)C2=O` (stereo not drawn) [Compound I-28, 3-(4-amino-6-fluoro-1-oxoisoindolin-2-yl)piperidine-2,6-dione], for which the pIC50 was more than 6.52 in test [1], more than 7.00 in test [2], less than 3.52 in test [3] and less than 3.52 in test [4] (setting [5]). The inhibition at 0.1 µM in the test on TNF-α is more than 50%.

`Nc1cc(F)cc2c1CN([C@H]1CCC(=O)NC1=O)C2=O` [Compound I-29]: the pIC50 was more than 6.52 in test [1], more than 7.00 in test [2], less than 3.52 in test [3] and less than 3.52 in test [4] (setting [5]). In the test on TNF-α, the inhibition at 0.1 µM was more than 50%.

Take `[2H][C@]1(N2Cc3c(N)cc(F)cc3C2=O)CCC(=O)NC1=O` [Compound I-31]: the pIC50 was more than 6.52 in test [1], more than 7.00 in test [2], less than 3.52 in test [3] and 3.52 to 6.40 in test [4] (setting [5]). Moreover, the inhibition at 0.1 µM with TNF-α is more than 50%.

With `[2H][C@@]1(N2Cc3c(N)cc(F)cc3C2=O)CCC(=O)NC1=O` [Compound I-32], the pIC50 is not above 6.52 in test [1], 6.40 to 7.00 in test [2], less than 3.52 in test [3] and less than 3.52 in test [4] (setting [5]). For the same molecule, the inhibition at 0.1 µM in the test on TNF-α was more than 50%.

For `Nc1cccc2c1CN(C1CCC(=O)NC1=O)C2=O` (stereo not drawn) [Lenalidomide, 3-(4-amino-1,3-dihydro-1-oxo-2H-isoindole-2-yl)-piperidine-2,6-dione, reference compound], the pIC50 in test [1] is not above 6.52; in test [2], 6.40 to 7.00; in test [3], less than 3.52; in test [4] (setting [5]), less than 3.52. The inhibition at 0.1 µM with TNF-α was less than 50%.
